Read-outs that look alike come from different tables or passages of the source.

The record followed here is patent US10364256B2 (GlaxoSmithKline Intellectual Property Development Limited, priority 2015, dated 2019).

Experiment [1] concerns the target T1, full length Keap1 protein / full length NRF2 protein (Homo sapiens, UniProt Q14145).
T1 construct: full length NRF2 protein and full length Keap1 protein (Keap1 exists a dimer) are used; His
Kind of experiment: NRF2-Keap1 TR-FRET Low Protein Assay. It counts as binding. The settings on record: 1.25 nM Keap1 FlagHis and 2.5 nM biotin-NRF2 added. Put shortly:
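Flag-tagged full-length Keap1 was preincubated with compound (3-fold series) for 2.25 h at 37 °C in Tris pH 8.0/MgCl2/NaCl/BSA/DTT/CHAPS. Biotin-Avi-NRF2 (added at 2.5 nM) was then bound for 1.25 h at 4 °C. Eu-streptavidin/anti-Flag-APC TR-FRET (665/615 nm) was read after 1 h at RT, and pIC50 came from a four-parameter fit.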

Experiment [2] concerns NQO1 specific enzyme activity in BEAS-2B cells (marker for NRF2 activation). Kind of experiment: BEAS-2B NQO1 MTT Assay. Type of experiment: cell-based. The conditions noted are these: compound incubated 48 hours, read-out: EC50 (NQO1 specific enzyme activity induction). Put shortly: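 BEAS-2B cells treated with compound for 48 h at 37 °C, then lysed; NQO1 activity in lysates measured kinetically by MTT reduction at A570 over 30 min. pEC50 from 3-parameter fit of ΔOD/min versus log concentration; lysate also taken for Cell Titer Glo.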

In experiment [3] the target is T2, Keap1 Kelch domain (321-609) / TAMRA-labeled 16mer NRF2 peptide (ETGE motif) (Homo sapiens, UniProt Q14145).
T2 construct: the Kelch domain (321-609) of Keap1 is used
T2 sequence (Q14145 321-609): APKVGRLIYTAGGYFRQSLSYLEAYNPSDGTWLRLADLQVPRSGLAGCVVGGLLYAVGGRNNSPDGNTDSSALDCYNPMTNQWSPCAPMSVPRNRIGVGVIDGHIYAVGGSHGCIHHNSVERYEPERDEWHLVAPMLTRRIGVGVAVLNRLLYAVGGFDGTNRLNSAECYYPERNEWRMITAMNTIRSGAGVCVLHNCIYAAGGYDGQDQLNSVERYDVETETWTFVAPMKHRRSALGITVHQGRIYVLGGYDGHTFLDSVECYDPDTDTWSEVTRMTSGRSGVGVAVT
Description: NRF2-Keap1 FP Assay (Keap1 Kelch fluorescence polarization). It counts as binding. The settings on record: 20 nM Keap1 (321-609), 8 nM Tamra labeled peptide. A digest of the protocol: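 Compound dilutions (3-fold) were incubated 1 hr at room temperature with 20 nM Keap1 Kelch (321-609) and 8 nM TAMRA-labeled ETGE 16mer peptide. Buffer was 50 mM Tris pH 8.0, 100 mM NaCl, 5 mM MgCl2, 1 mM DTT, 2 mM CHAPS, 0.005% BSA. Fluorescence polarization (mP) was normalized to controls and fitted with a four-parameter equation to give pIC50.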

T1 sequence (Q14145 whole entry): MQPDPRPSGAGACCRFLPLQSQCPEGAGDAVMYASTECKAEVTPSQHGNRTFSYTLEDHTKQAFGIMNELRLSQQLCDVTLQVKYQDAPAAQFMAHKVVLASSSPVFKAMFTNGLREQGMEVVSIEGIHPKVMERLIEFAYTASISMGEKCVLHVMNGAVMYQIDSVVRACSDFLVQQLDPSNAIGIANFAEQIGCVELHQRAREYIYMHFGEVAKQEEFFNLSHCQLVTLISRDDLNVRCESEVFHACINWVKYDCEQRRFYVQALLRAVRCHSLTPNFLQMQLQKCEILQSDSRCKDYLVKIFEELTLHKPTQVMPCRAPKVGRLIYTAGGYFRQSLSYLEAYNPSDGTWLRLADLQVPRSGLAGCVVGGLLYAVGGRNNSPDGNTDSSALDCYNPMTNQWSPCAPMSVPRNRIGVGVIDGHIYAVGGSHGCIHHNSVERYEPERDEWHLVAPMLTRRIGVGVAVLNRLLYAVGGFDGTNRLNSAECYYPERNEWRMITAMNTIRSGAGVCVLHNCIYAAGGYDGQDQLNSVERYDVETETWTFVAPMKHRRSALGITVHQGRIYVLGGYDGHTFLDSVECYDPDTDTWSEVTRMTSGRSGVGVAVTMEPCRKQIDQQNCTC

Usually IC50 stands for the concentration that gives 50% inhibition. A lower IC50 goes with greater potency in that assay. The EC50 is the concentration giving half of the maximal effect. Turning to `Cc1c(O[C@@H](C)C2CCCCC2)cccc1-c1cccc(-n2ncc(C(=O)O)c2[C@H]2C[C@@H]2c2cn(C)nn2)c1` (racemic) [Example 71, 1-(3′-((S)-1-Cyclohexylethoxy)-2′-methyl-[1,1′-biphenyl]-3-yl)-5-(trans-2-(1-methyl-1H-1,2,3-triazol-4-yl)cyclopropyl)-1H-pyrazole-4-carboxylic Acid], the IC50 in experiment [1] and in experiment [3] was 1 to 10 µM in each case. Further, the 50% effective concentration (EC50) in experiment [2] (Homo sapiens) lay within 1 to 10 µM.

For `CC[C@H]1c2ccccc2OC(C)(C)CN1Cc1cccc(-c2cccc(-n3ncc(C(=O)O)c3[C@@H]3C[C@H]3c3cn(C)nn3)c2)c1` (single isomer, unassigned; isomer 1) [Example 124], the IC50 in experiment [1] was less than 0.01 µM; in experiment [3] it was 0.01 to 0.1 µM. The half-maximal effective concentration (EC50) in experiment [2] (Homo sapiens) was in the range of 0.01 to 0.1 µM.

In the case of `C[C@H](Oc1cccc(-c2cccc(-n3ncc(C(=O)O)c3[C@@H]3C[C@H]3c3cn(C4CCNCC4)nn3)c2)c1)C1CCCCC1` (racemic) [Example 86, 1-(3′-((S)-1-cyclohexylethoxy)-[1,1′-biphenyl]-3-yl)-5-(trans-2-(1-(piperidin-4-yl)-1H-1,2,3-triazol-4-yl)cyclopropyl)-1H-pyrazole-4-carboxylic Acid], the IC50 in experiment [1] and in experiment [3] was 0.01 to 0.1 µM in each case. The half-maximal effective concentration (EC50) in experiment [2] (Homo sapiens) is 0.1 to 1 µM.

Turning to `C[C@H](Oc1cccc(-c2cccc(-n3ncc(C(=O)O)c3[C@@H]3C[C@H]3c3cn(C4CN(C)C4)nn3)c2)c1)C1CCCCC1` (racemic) [Example 94, 1-(3′-((S)-1-Cyclohexylethoxy)-[1,1′-biphenyl]-3-yl)-5-(trans-2-(1-(1-methylazetidin-3-yl)-1H-1,2,3-triazol-4-yl)cyclopropyl)-1H-pyrazole-4-carboxylic Acid], the IC50 in experiment [1] and in experiment [3] was 0.01 to 0.1 µM throughout. Further, the 50% effective concentration (EC50) in experiment [2] (Homo sapiens) was 0.01 to 0.1 µM.

In the case of `CC(Oc1cccc(-c2cccc(-n3ncc(C(=O)O)c3[C@H]3C[C@@H]3c3cn(C)nn3)c2)c1)[C@H]1CC[C@H](C(F)(F)F)CC1` (mixture of isomers) [Example 180, 5-((1,2-trans)-2-(1-Methyl-1H-1,2,3-triazol-4-yl)cyclopropyl)-1-(3′-((R)-1-((1R,4R)-4-(trifluoromethyl)cyclohexyl)ethoxy)-[1,1′-biphenyl]-3-yl)-1H-pyrazole-4-carboxylic acid], the half-maximal inhibitory concentration (IC50) lay in the range of 0.01 to 0.1 µM in experiment [1] and 0.1 to 1 µM in experiment [3]. For the same molecule, the EC50 in experiment [2] (Homo sapiens) lay in the range of 0.001 to 0.01 µM.

Consider `CC(Oc1ccc(-c2cccc(-n3ncc(C(=O)O)c3[C@H]3C[C@@H]3c3cn(C)nn3)c2)cc1)C1CCCCC1` (mixture of isomers) [Example 241, 1-(4′-(1-Cyclohexylethoxy)-[1,1′-biphenyl]-3-yl)-5-((1,2-trans)-2-(1-methyl-1H-1,2,3-triazol-4-yl)cyclopropyl)-1H-pyrazole-4-carboxylic Acid], for which the concentration for half-maximal inhibition (IC50) in experiment [1] was greater than 100 µM; in experiment [3] it was greater than 10 µM. Also, the EC50 in experiment [2] (Homo sapiens) lay in the range of 1 to 10 µM.

For the molecule `CCC[C@@H]1CCCCN1C(=O)c1cccc(-c2cccc(-n3ncc(C(=O)O)c3[C@H]3C[C@@H]3c3cn(C(C)C)nn3)c2)c1` (racemic) [Example 200], the IC50 in experiment [1] was less than 0.01 µM; in experiment [3] it was 0.01 to 0.1 µM. Further, in experiment [2] (Homo sapiens, BEAS-2B, 48 h), the 50% effective concentration (EC50) was in the range of 0.1 to 1 µM.

`C[C@H]1Cc2ccccc2S(=O)(=O)N(Cc2cccc(-c3cccc(-n4ncc(C(=O)O)c4[C@@H]4C[C@H]4c4cn(C)nn4)c3)c2)C1` [Example 132, 1-(3′-(((S)-4-methyl-1,1-dioxido-4,5-dihydrobenzo[f][1,2]thiazepin-2(3H)-yl)methyl)-[1,1′-biphenyl]-3-yl)-5-((1R,2R)-2-(1-methyl-1H-1,2,3-triazol-4-yl)cyclopropyl)-1H-pyrazole-4-carboxylic acid]: the values for the IC50 in experiment [1] and in experiment [3] were less than 0.01 µM and 0.01 to 0.1 µM, respectively. For the same molecule, the EC50 in experiment [2] (Homo sapiens) lay in the range of 0.1 to 1 µM.

As to `CN1CCN(Cc2cccc(-c3cccc(-n4ncc(C(=O)O)c4[C@@H]4C[C@H]4c4cn(C)nn4)c3)c2)S(=O)(=O)c2ccccc21` (racemic) [Example 140, 1-(3′-((5-methyl-1,1-dioxido-4,5-dihydrobenzo[f][1,2,5]thiadiazepin-2(3H)-yl)methyl)-[1,1′-biphenyl]-3-yl)-5-((1,2- trans)-2-(1-methyl-1H-1,2,3-triazol-4-yl)cyclopropyl)-1H-pyrazole-4-carboxylic acid], the half-maximal inhibitory concentration (IC50) in experiment [1] and in experiment [3] was 0.01 to 0.1 µM each time. Moreover, the EC50 in experiment [2] (Homo sapiens) lay in the range of 1 to 10 µM.

Regarding `C[C@H](Oc1cccc(-c2cccc(-n3ncc(C(=O)O)c3[C@@H]3C[C@H]3c3cn(C4CN(C(=O)OC(C)(C)C)C4)nn3)c2)c1)C1CCCCC1` (racemic) [Example 80, 5-(trans-2-(1-(1-(tert-Butoxycarbonyl)azetidin-3-yl)-1H-1,2,3-triazol-4-yl)cyclopropyl)-1-(3′-((S)-1-cyclohexylethoxy)-[1,1′-biphenyl]-3-yl)-1H-pyrazole-4-carboxylic acid], the results for the IC50 in experiment [1] and in experiment [3] were 0.01 to 0.1 µM and 0.1 to 1 µM, respectively. Besides, the EC50 in experiment [2] (Homo sapiens) was 0.01 to 0.1 µM.

In the case of `CC[C@@H]1c2ccccc2OC(C)(C)CN1Cc1cccc(-c2cccc(-n3ncc(C(=O)O)c3[C@@H]3C[C@H]3c3cn(C)nn3)c2)c1` (single isomer, unassigned; isomer 2) [Example 125], the half-maximal inhibitory concentration (IC50) in experiment [1] was less than 0.01 µM; in experiment [3], 0.01 to 0.1 µM. For the same molecule, in experiment [2] (Homo sapiens), the concentration giving a half-maximal response (EC50) fell in the range of 0.001 to 0.01 µM.

On to `C[C@H](Oc1cccc(-c2cccc(-n3ncc(C(=O)O)c3[C@@H]3C[C@H]3c3cn(C4CCN(C(=O)OC(C)(C)C)CC4)nn3)c2)c1)C1CCCCC1` (racemic) [Example 81, 5-(trans-2-(1-(1-(tert-Butoxycarbonyl)piperidin-4-yl)-1H-1,2,3-triazol-4-yl)cyclopropyl)-1-(3′-((S)-1-cyclohexylethoxy)-[1,1′-biphenyl]-3-yl)-1H-pyrazole-4-carboxylic acid], for which the half-maximal inhibitory concentration (IC50) in experiment [1] and in experiment [3] was 0.1 to 1 µM throughout. Besides, in experiment [2] (Homo sapiens), the half-maximal effective concentration (EC50) is 0.01 to 0.1 µM.

For the molecule `CC[C@H]1c2ccccc2OCCN1Cc1cccc(-c2cccc(-n3ncc(C(=O)O)c3[C@@H]3C[C@H]3c3cn(C)nn3)c2)c1` (single isomer, unassigned; isomer 1) [Example 122], the half-maximal inhibitory concentration (IC50) is less than 0.01 µM in experiment [1] and 0.01 to 0.1 µM in experiment [3]. In experiment [2], the 50% effective concentration (EC50) lay in the range of 0.01 to 0.1 µM.

Turning to `C[C@H](Oc1cccc(-c2cccc(-n3ncc(C(=O)O)c3[C@@H]3C[C@H]3c3cn(CC(F)(F)F)nn3)c2)c1)C1CCCCC1` [Example 97, 1-(3′-((S)-1-Cyclohexylethoxy)-[1,1′-biphenyl]-3-yl)-5-((1R,2R)-2-(1-(2,2,2-trifluoroethyl)-1H-1,2,3-triazol-4-yl)cyclopropyl)-1H-pyrazole-4-carboxylic acid], the half-inhibitory concentration (IC50) in experiment [1] and in experiment [3] was 0.01 to 0.1 µM in each case. Also, the EC50 in experiment [2] (Homo sapiens) fell in the range of 0.001 to 0.01 µM.

Regarding `C[C@H](Oc1cccc(-c2cccc(-n3ncc(C(=O)O)c3[C@@H]3C[C@H]3c3cn(C4CCN(C)CC4)nn3)c2)c1)C1CCCCC1` (racemic) [Example 82, 1-(3′-((S)-1-Cyclohexylethoxy)-[1,1′-biphenyl]-3-yl)-5-(trans-2-(1-(1-methylpiperidin-4-yl)-1H-1,2,3-triazol-4-yl)cyclopropyl)-1H-pyrazole-4-carboxylic acid], the half-inhibitory concentration (IC50) in experiment [1] and in experiment [3] was 0.01 to 0.1 µM in each case. Besides, the half-maximal effective concentration (EC50) in experiment [2] (Homo sapiens) lay in the range of 0.01 to 0.1 µM.

Regarding `C[C@H](Oc1cccc(-c2cccc(-n3ncc(C(=O)OCOC(=O)c4ccccc4)c3[C@@H]3C[C@H]3c3cn(C)nn3)c2)c1)C1CCCCC1` [Example 111, (Benzoyloxy)methyl 1-(3′-((S)-1-cyclohexylethoxy)-[1,1′-biphenyl]-3-yl)-5-((1R,2R)-2-(1-methyl-1H-1,2,3-triazol-4-yl)cyclopropyl)-1H-pyrazole-4-carboxylate], the IC50 is 0.1 to 1 µM in experiment [1] and greater than 10 µM in experiment [3]. The EC50 in experiment [2] (Homo sapiens) lay in the range of 0.001 to 0.01 µM.

`CCC1c2ccccc2OCCN1Cc1cccc(-c2cccc(-n3ncc(C(=O)O)c3[C@H]3C[C@@H]3c3cn(C)nn3)c2)c1` (mixture of isomers) [Example 123, 1-(3′-((5-Ethyl-2,3-dihydrobenzo[f][1,4]oxazepin-4(5H)-yl)methyl)-[1,1′-biphenyl]-3-yl)-5-((1,2-trans)-2-(1-methyl-1H-1,2,3-triazol-4-yl)cyclopropyl)-1H-pyrazole-4-carboxylic Acid]: the IC50 in experiment [1] and in experiment [3] was 0.01 to 0.1 µM throughout. The half-maximal effective concentration (EC50) in experiment [2] (Homo sapiens) was 0.01 to 0.1 µM.

`Cc1cc([C@@H]2C[C@H]2c2c(C(=O)O)cnn2-c2cccc(-c3cccc(O[C@@H](C)C4CCCCC4)c3)c2)on1` [Example 115, 1-(3′-((S)-1-cyclohexylethoxy)-[1,1′-biphenyl]-3-yl)-5-((1R,2R)-2-(3-methylisoxazol-5-yl)cyclopropyl)-1H-pyrazole-4-carboxylic Acid]: the concentration for half-maximal inhibition (IC50) in experiment [1] and in experiment [3] was 0.1 to 1 µM throughout. Also, the 50% effective concentration (EC50) in experiment [2] (Homo sapiens) is 0.1 to 1 µM.
